Measurements as given in patent US11000535B2, “Anticancer composition and use thereof” (KAOHSIUNG MEDICAL UNIVERSITY, priority 2015, dated 2021).
≈ marks a conversion by molar mass, not a printed value.

What was measured:
[1] = tested on: human glycine N-methyltransferase promoter; test: GNMT promoter-driven luciferase reporter assay in H7GPL cells; type: cell-based; conditions: H7GPL luciferase
Method: Please refer to FIG. 1, which illustrates the configuration of pLV-GNMTpLuc plasmid. HEK293T cells were cotransfected with a packaging plasmid-pCMV-ΔR8.91, a VSV-G envelope expressing plasmid-pMD.G and pLV-GNMTpLuc using TurboFect™ Reagent (Fermentas, Hanover, Md.). One resultant colony was picked, amplified and denominated as H7GPL (HuH-7-GNMT promoter-Luciferase). The relative luciferase activity (RLA) was calculated as “activity of luciferase/intensity of alamarBlue fluorescence”. The fold changes in GNMT promoter induction was calculated as “RLA of drug/RLA of solvent control”. Compounds with the ability to activate human glycine N-methyltransferase promoter in H7GPL could serve as a citeria for screening drugs.
Please refer to FIG. 2, which illustrates the luciferase activity in a screening platform. Previously, 26 FDA approved drugs were identified that can reverse the gene expression signature of HCC. We obtained 26 drugs. H7GPL cells were seeded in 96-well plates for 18 hours and then were treated with these 26 drugs and solvent control for an extra 24 hours.
In the initial screening, when (individual luciferase activity−average luciferase activity of all hits)/standardized Z scores of all samples is greater than 1.5, it means the compound has the capability of enhancing the GNMT reporter activity.
Huh7 cells were infected with this virus and selected with puromycin-containing medium. One resultant colony was picked, amplified and denominated as H7GPL (Huh7 GNMT promoter-luciferase). The cell lysate of H7GPL was used for luciferase activity measurement using the Luciferase Assay System (Promega).
For primary screening, H7GPL cells seeded in 96-well plates were treated for 24 h with individual drugs at a concentration of 2 mg/mL for crude extracts and 0.2 mg/mL for pure compounds and then were lysed for the luciferase activity assay using the Luciferase Assay System (Promega, Madison, Wis., USA).
Reporter activity for each well was transformed to the Z score by using data from all assay plates.
Then, hits of primary screening were sorted by Z score ≥1.5 and used for secondary screening.
And then placed in the above-described culture plate H7GPL cell replication, and after the disposal of seized goods in those 20 hours, the company added AbD serotec Reagent (Oxford, UK), further cultured for 4 hours.
The cytotoxicity was measured according to the manufacturer's recommendation for assessing the reporter gene.
Drugs that induced GNMT promoter activity ≥1.5-fold were considered as hits of the secondary screen with the capability of enhancing the activity of GNMT.

Huh7 cells [2] = test: alamarBlue cell viability / proliferation, Huh7; type: cell-based, human
Excerpt: Next, we analyzed the effect of PGG on cell proliferation in different liver cancer cell lines, including Huh7, Hep3B (ATCC-No 8064), HepG2 (ATCC HB-8065), SK-HEP-1 (ATCC HTB-52), Mahlavu and HepG2 (ATCC HB-8065).
Please refer to FIG. 18, which illustrates the effect of PGG on cell proliferation in different liver cancer cell lines, wherein the numeral 1 denotes Huh7 cells, the numeral 2 denotes Hep3B cells, the numeral 3 denotes SK-HEP-1 cells, the numeral 4 denotes Mahlavu cells, and the numeral 5 denotes HepG2 cells. And cell viability was determined by the alamarBlue® viability assay. IC50 values of PGG in each cell line are shown as follows: Huh7 cells 0.03 mg/mL, Hep3B cells 0.07 mg/mL, SK-HEP-1 cells, Mahlavu cells and HepG2 0.10 mg/mL dose-dependent.
Human liver cancer cell lines Huh7, Hep G2, Hep 3B, SK-HEP-1, Mahlavu and embryonic kidney cell line HEK-293T all were cultured in Dulbecco's Modified Eagle's Medium (DMEM) (Gibco BRL, Grand Island, N.Y., USA) with 10% heat-inactivated fetal bovine serum (HyClone, Logan, Utah, USA), penicillin (100 U/mL), streptomycin ([…]), nonessential amino acids (0.1 mM/L) and L-glutamine (2 mM/L) in a humidified incubator with 5% CO2.

Huh7 cells [3] = test: Antitumor effect of PGG, Huh7 xenograft; type: in vivo, nude mice; conditions: 300 mpk, once a day for 10 days
Method: To test the antitumor effect of PGG in vivo, Huh7 cells were implanted subcutaneously into nude mice.
By the same token, mice were subcutaneously injected with Huh7 cells (2×10^6) in order to test the anti-tumor effect of PGG in vivo.
Tumor growth was monitored (every day or three times per week) by using Vernier caliper measurement of the length (L) and width (W) of the tumor.
Tumor volume (TV) was calculated by using the formula volume=(L×W^2)/2.

c-Myc = c-Myc expression in xenograft tumors; type: in vivo, mice; conditions: FIG. 34 c-Myc/actin (PGG); FIG. 35 mRNA (F3-6 25 and 300 mpk)
Method: Please refer to FIGS. 34-35. FIG. 34 illustrates c-Myc/actin expression ratio in the tumor after treatments, wherein the numeral 1 is for the solvent, and the numeral 2 is for PGG. FIG. 35 illustrates c-Myc in RNA expression in the tumor after treatments, wherein the numeral 1 is for the solvent, the numeral 2 is for F3-6 (25 mpk), and the numeral 3 is for F3-6 (300 mpk).
RNA was prepared by using Tri Reagent (Sigma-Aldrich, St Louis, Mo., USA) and was reverse transcribed into cDNA using a Super Script II Reverse Transcriptase Kit (Invitrogen Inc., Carlsbad, Calif., USA).
PCR was performed on an ABI StepOne Plus System (Applied Biosystems, Foster City, Calif., USA) using the LightCycler® First Start DNA Master SYBR Green I reagent (Roche Diagnostics, Basel, Switzerland). The mRNA level was normalized using the TATA-box binding protein (TBP) mRNA level as the standard.
The following primers were used: GNMT forward, 5′-ACTGGATGACT CTGGACAA-3′ (SEQ ID NO. 3) and reverse, 5′-ACTGAGGATGTGGTCGT-3′(SEQ ID NO. 4); TBP forward, 5′-[…]-3′ (SEQ ID NO. 5) and reverse, 5′-[…]-3′(SEQ ID NO. 6); c-Myc forward, […](SEQ ID NO. 7) and reverse, […](SEQ ID NO. 8). […]

- IC50 (Huh7 cells [2]): 30 µg/mL (≈ 31.9 µM)
SMILES: O=C(OC[C@H]1O[C@@H](OC(=O)c2cc(O)c(O)c(O)c2)[C@H](OC(=O)c2cc(O)c(O)c(O)c2)[C@@H](OC(=O)c2cc(O)c(O)c(O)c2)[C@@H]1OC(=O)c1cc(O)c(O)c(O)c1)c1cc(O)c(O)c(O)c1 [PGG, 1,2,3,4,6-penta-O-galloyl-β-D-glucopyranoside]
- GNMT promoter activity (in words) [1]: can induce GNMT promoter activity
- tumor growth (tumor volume) vs control group (Huh7 cells [3]): significant inhibition in tumor growth
- expression of c-Myc in the tumor xenograft mice (c-Myc): lowers the expression of c-Myc
